# In paper PMC11778240, “Synthesis and preclinical evaluation of tigilanol tiglate analogs as latency-reversing agents for the eradication of HIV” (Science Advances, 2025):
# Legend:
# HIV = details: HIV-infected, ART-treated humanized mice, cited from earlier work
# NF-κB pathway = experiment: NF-κB activation assay, A549 cells with SEAP reporter; assay type: cell-based, Human; details: 24 hours after dosing, A549 cells
# Text: As a high-throughput method of screening compounds for their ability to get into cells and activate immunological pathways related to HIV latency reversal ([46], [70]), we conducted an NF-κB reporter assay using A549 cells stably integrated with a secreted embryonic alkaline phosphatase reporter under the control of a promoter fused to five NF-κB binding sites (Fig. 7B) ([48], [70], [71]).
# Human A549-Dual™ Cells supplied by InvivoGen (Cat. code a549d-nfis) and CHO-K1 cells were passaged when about 90% confluency was reached (approximately every three days). With each passage, media was aspirated from the cell layer, which was then washed with PBS. Following aspiration of the PBS, cells were detached from the culture flask with 0.25% GibcoTM Trypsin-EDTA and transferred to a 50 mL conical, which was volumed up with complete pre-warmed DMEM (4.5 g/L glucose, 10% FBS, and 1% Pen-Strep-Glutamine (100 X, 50 mg/mL)) or Ham's F-12K (Kaighn's) Medium supplemented with 10% FBS and 1% Pen-Strep (100 X, 50 mg/mL).
# This conical was spun down at 1800 rpm for 3 minutes, the supernatant was removed, and cells were resuspended in their respective fresh, pre-warmed media. To count cells, 10 μL of resuspended cells were added to a sterile microcentrifuge tube and mixed with 10 μL of trypan blue after which 10 μL of the mixture was pipetted into a Countess chamber slide. A Countess™ 3 Automated Cell Counter was subsequently utilized to determine cell viability and concentration.
# 1 x 10^6 cells were seeded with each passage into a T75 culture flask, and cells were incubated at […]
# Human A549 lung carcinoma cells (InvivoGen Cat. code a549d-nfis), stably integrated with a secreted embryonic alkaline phosphatase (SEAP) reporter, allow for the activity of the NF-κB pathway to be monitored. The SEAP reporter is under control of the interferon β (IFN-β) minimal promoter, which is fused to five NF-κB binding sites.
# 5 × 10^4 A549 cells were plated on Corning® 96 Well TC-Treated Microplates (CLS3595) in 180 μl of pre-warmed DMEM (4.5 g/L glucose, 10% heat-inactivated FBS (30 min at 56 ℃), and 1% Pen-Strep-Glutamine (100 X, 50 mg/mL)). Note that if cells were grown in media containing FBS that is not heat-inactivated, media will contain alkaline phosphatase. In this case, all supernatant must thoroughly be aspirated from the cell pellet obtained after centrifugation before resuspending cells in media containing heat inactivated FBS for plating. Following incubation at 37 °C in 5% CO2 for approximately 24 hours to allow for cell adherence onto the 96 well plate, 1.8 μL of each compound dissolved in DMSO was added in quadruplicate to their respective wells to achieve a final compound concentration of 1500 nM, 500 nM, or 50 nM. 1.8 μL of DMSO was added to wells as negative controls while wells treated with EBC-46 served as positive controls. 24 hours following compound addition, 180 μL of QUANTI-BlueTM Solution (InvivoGen Cat. code rep-qbs)- medium containing QB buffer and QB Reagent for detection and quantification of alkaline phosphatase- were added into wells on a new clear flat-bottom 96-well plate. 20 μL of supernatant of either SEAP-expressing cells incubated with compound or SEAP-expressing cells incubated with DMSO only were added to the wells in the new 96-well plate containing QUANTI-BlueTM Solution. Supernatant and QUANTI-BlueTM Solution were incubated at 37 °C in 5% CO2 for approximately an hour and a half. Following incubation, optical density (OD) at 630 nm was measured for each well using a BioTek Synergy H1 microplate reader under normal read speed and with a delay of 100 msec.
# J-Lat clone 10.6 cells = experiment: J-Lat HIV latency reversal assay (GFP expression); assay type: cell-based, Human; details: J-Lat 10.6; for HIV latency reversal time course in words: over 48 hours
# Text: Having shown that our lead compounds bind cell-free PKC isoforms, enter cells, translocate PKC-GFP fusion proteins, and activate NF-κB transcription factors, we next set out to determine whether our analogs were capable of reversing HIV from latency. We performed in vitro assays using T lymphocyte J-Lat clone 10.6, which contains a latent near full-length replication-incompetent integrated HIV DNA genome ([72]). J-Lat 10.6 lacks two viral genes, env and nef, which encode for the envelope protein and an accessory protein, respectively, and thus cannot initiate a spreading HIV infection. The integrated HIV provirus also encodes a GFP reporter gene, allowing latency reversal to be measured by quantification of GFP expression (fig. S1). […] In this latency reversal assay, we quantified GFP expression 48 hours after compound addition and observed bryostatin 1 to be maximally effective at concentrations of 40 nM or higher with latency reversal in 12% of cells (Fig. 8). Given the efficacy of bryostatin 1 as an LRA ([73], [74]), EBC-46 and many of its analogs tested in this J-Lat assay induced latency reversal in >90% of cells. […] SUW427, an esterase-releasable prodrug of EBC-46, also performed similarly to EBC-46 with a maximum efficacy of latency reversal in >90% of cells at a dose of 250 nM. […] The gradual release of EBC-46 from its prodrug form provides an alternative mode of administration that avoids the bolus effect associated with rapid drug administration ([17]). […] This is consistent with its lack of activity in the NF-κB activation assay and its design as a negative control as it is structurally similar to EBC-46 but unable to bind to the C1 domain of PKC at the concentrations used in this assay as it lacks a complete pharmacophore.
# HIV latency reversal in-vitro assay
# Human T Lymphocyte J-Lat Full Length Cell Line 10.6 (cat #9849) was obtained through the NIH HIV Reagent Program, Division of AIDS, NIAID, NIH and was contributed to the NIH HIV Reagent Program by Dr. Eric Verdin (70). J-Lat 10.6 cells were plated at 5 × 10^5 cells in 180 μL of RF10 media consisting of RPMI media supplemented with 1% Penicillin/Streptomycin and 10% Fetal Bovine Serum (FBS) in 96 -well U -bottom plates. J -Lat 10.6 cells were then stimulated for 48 hr by adding 20 μL of newly designed and synthesized tigilanol tiglate analogs, PKC modulators (bryostatin 1) as our positive control or med ia only (mock) as our negative control. Our negative control was RF10 media as the tigilanol tiglate analogs were freshly diluted with RF10 prior to plating. The final volume was 200 μL per well. Experiments were performed in three independent biological replicates, each completed in technical duplicates (n = 6). After 48 hr stimulation, 96 - well U -bottom plates were centrifuged at 296 RCF for 7 minutes to pellet cells, which were resusp ended in 200 μL of freshly prepared 2% paraformaldehyde (PFA) in PBS. GF P expression was measured 24 -hours post -fixation using the FITC channel on a LSR Fortessa (BD Biosciences) flow cytometer. Data analysis was conducted with FlowJo software version 10.8.1.
# latent HIV = details: cited from earlier work
molecule,measurement,setting,value
C=C1C[C@H]2C[C@]3(O)O[C@H](C[C@@H](O)CC(=O)O[C@@H](CO)C[C@@H]4C/C(=C\C(=O)OC)[C@H](OC(=O)CCCCCCC)[C@@](O)(O4)C(C)(C)/C=C/[C@@H](C1)O2)C[C@H](OC(C)=O)C3(C)C [SUW133],animals not rebounding in vivo after ART discontinuation,HIV; with natural killer cells as kill arm,40%
same,effect on HIV rebound in words,HIV; administered alone,capable of delaying rebound when administered alone
CC=C(C)C(=O)OC1C(C)C2(O)C(C3OC3(COC(=O)OCc3ccc(OC(=O)OC)cc3)C(O)C3(O)C(=O)C(C)=CC32)C2C(C)(C)C12OC(=O)C(C)CC (centres unmarked) [SUW427],"NF-κB activation (optical density, 630 nm)",NF-κB pathway; 50 nM,"0.33 optical density, 630 nm"
same,"NF-κB activation (optical density, 630 nm)",NF-κB pathway; 500 nM,"0.64 optical density, 630 nm"
same,HIV latency reversal time course in words,J-Lat clone 10.6 cells; 100 nM,clear delayed HIV latency reversal
same,"maximal latency reversal, % of cells","J-Lat clone 10.6 cells; 250 nM, 48 hours",> 90 % of cells
same,HIV latency reversal time course in words,J-Lat clone 10.6 cells; 250 nM,almost converged with its parent compound at all time points and reached maximal latency reversal
"CCC/C=C/C=C/C(=O)O[C@H]1/C(=C/C(=O)OC)C[C@H]2C[C@H]([C@@H](C)O)OC(=O)C[C@H](O)C[C@@H]3C[C@H](OC(C)=O)C(C)(C)[C@](O)(C[C@@H]4C/C(=C/C(=O)OC)C[C@H](/C=C/C(C)(C)[C@]1(O)O2)O4)O3 [bryostatin 1, reference compound]","NF-κB activation (optical density, 630 nm)",NF-κB pathway; 50 nM,"0.47 optical density, 630 nm"
same,"NF-κB activation (optical density, 630 nm)",NF-κB pathway; 500 nM,"0.41 optical density, 630 nm"
same,"latency reversal, % of cells","J-Lat clone 10.6 cells; maximally effective at 40 nM or higher, 48 hours",12 % of cells
prostratin-C13-naphthyl acetate,potency as an LRA relative to prostratin,latent HIV,> 130 fold
